Results reported in ChEMBL document CHEMBL1649141, “Synthesis and antimalarial activities of cyclen 4-aminoquinoline analogs” (Antimicrob Agents Chemother, 2009).
Active and inactive are the calls of the source. The calls are words filed in the database; no cut-off is given here.

Key:
Plasmodium falciparum [1] = assay: Antimalarial activity against chloroquine-resistant Plasmodium falciparum W2 assessed as [3H]hypoxanthine incorporation; assay type: functional, organism-based
Plasmodium falciparum [2] = assay: Antimalarial activity against […]-resistant Plasmodium falciparum TM91C235 assessed as [3H]hypoxanthine incorporation; assay type: functional, organism-based
Plasmodium falciparum [3] = assay: Antimalarial activity against chloroquine-resistant Plasmodium falciparum W2 after 72 hrs; assay type: functional, organism-based; conditions: W2, 72 h
Plasmodium falciparum [4] = assay: Antimalarial activity against chloroquine-sensitive Plasmodium falciparum D6 after 72 hrs; assay type: functional, organism-based; conditions: D6, 72 h
Vero = assay: Cytotoxicity against african green monkey Vero cells upto 10 uM after 72 hrs; assay type: cell-based; conditions: chlorocebus sabaeus
[5] = Selectivity index, ratio of IC50 for african green monkey Vero cells to IC50 for chloroquine-sensitive Plasmodium falciparum D6; assay type: toxicity, cell-based; conditions: read-out: Selectivity Index
[6] = Selectivity index, ratio of IC50 for african green monkey Vero cells to IC50 for chloroquine-resistant Plasmodium falciparum W2; assay type: toxicity, cell-based; conditions: read-out: Selectivity Index
Plasmodium falciparum [7] = assay: Antimalarial activity against chloroquine-sensitive Plasmodium falciparum D6 assessed as [3H]hypoxanthine incorporation; assay type: functional, organism-based
[8] = Inhibition of beta-hematin formation after 14 hrs by spectrophotometry; assay type: functional
Plasmodium berghei [9] = assay: Antimalarial activity against Plasmodium berghei NK-65 infected in Swiss Webster mouse assessed as suppression of parasitemia at 1.1 mg/kg, ip QD for 3 days administered 2 hrs post infection measured on day 5; assay type: functional; conditions: route intraperitoneal
Plasmodium berghei [10] = assay: Antimalarial activity against Plasmodium berghei NK-65 infected in Swiss Webster mouse assessed as suppression of parasitemia at 1.1 mg/kg, ip QD for 3 days administered 2 hrs post infection measured on day 7; assay type: functional; conditions: route intraperitoneal
Plasmodium berghei [11] = assay: Antimalarial activity against Plasmodium berghei NK-65 infected in Swiss Webster mouse assessed as suppression of parasitemia at 1.1 mg/kg, ip QD for 3 days administered 2 hrs post infection measured on day 10; assay type: functional; conditions: route intraperitoneal
Plasmodium berghei [12] = assay: Antimalarial activity against Plasmodium berghei NK-65 infected in Swiss Webster mouse assessed as suppression of parasitemia at 3.3 mg/kg, ip QD for 3 days administered 2 hrs post infection measured on day 5; assay type: functional; conditions: route intraperitoneal
Plasmodium berghei [13] = assay: Antimalarial activity against Plasmodium berghei NK-65 infected in Swiss Webster mouse assessed as suppression of parasitemia at 3.3 mg/kg, ip QD for 3 days administered 2 hrs post infection measured on day 7; assay type: functional; conditions: route intraperitoneal
Plasmodium berghei [14] = assay: Antimalarial activity against Plasmodium berghei NK-65 infected in Swiss Webster mouse assessed as suppression of parasitemia at 3.3 mg/kg, ip QD for 3 days administered 2 hrs post infection measured on day 10; assay type: functional; conditions: route intraperitoneal
Plasmodium berghei [15] = assay: Antimalarial activity against Plasmodium berghei NK-65 infected in Swiss Webster mouse assessed as suppression of parasitemia at 10 mg/kg, ip QD for 3 days administered 2 hrs post infection measured on day 5; assay type: functional; conditions: route intraperitoneal
Plasmodium berghei [16] = assay: Antimalarial activity against Plasmodium berghei NK-65 infected in Swiss Webster mouse assessed as suppression of parasitemia at 10 mg/kg, ip QD for 3 days administered 2 hrs post infection measured on day 7; assay type: functional; conditions: route intraperitoneal
Plasmodium berghei [17] = assay: Antimalarial activity against Plasmodium berghei NK-65 infected in Swiss Webster mouse assessed as suppression of parasitemia at 10 mg/kg, ip QD for 3 days administered 2 hrs post infection measured on day 10; assay type: functional; conditions: route intraperitoneal
Plasmodium berghei [18] = assay: Antimalarial activity against Plasmodium berghei NK-65 infected in Swiss Webster mouse assessed as suppression of parasitemia at 30 mg/kg, ip QD for 3 days administered 2 hrs post infection measured on day 5; assay type: functional; conditions: route intraperitoneal
Plasmodium berghei [19] = assay: Antimalarial activity against Plasmodium berghei NK-65 infected in Swiss Webster mouse assessed as suppression of parasitemia at 30 mg/kg, ip QD for 3 days administered 2 hrs post infection measured on day 7; assay type: functional; conditions: route intraperitoneal
Plasmodium berghei [20] = assay: Antimalarial activity against Plasmodium berghei NK-65 infected in Swiss Webster mouse assessed as suppression of parasitemia at 30 mg/kg, ip QD for 3 days administered 2 hrs post infection measured on day 10; assay type: functional; conditions: route intraperitoneal
Plasmodium berghei [21] = assay: Antimalarial activity against Plasmodium berghei NK-65 infected in Swiss Webster mouse assessed as mean survival time at 1.1 mg/kg, ip QD for 3 days administered 2 hrs post infection measured on day 28; assay type: functional; conditions: route intraperitoneal
Plasmodium berghei [22] = assay: Antimalarial activity against Plasmodium berghei NK-65 infected in Swiss Webster mouse assessed as mean survival time at 3.3 mg/kg, ip QD for 3 days administered 2 hrs post infection; assay type: functional; conditions: route intraperitoneal
Plasmodium berghei [23] = assay: Antimalarial activity against Plasmodium berghei NK-65 infected in Swiss Webster mouse assessed as mean survival time at 10 mg/kg, ip QD for 3 days administered 2 hrs post infection; assay type: functional; conditions: route intraperitoneal
Plasmodium berghei [24] = assay: Antimalarial activity against Plasmodium berghei NK-65 infected in Swiss Webster mouse assessed as mean survival time at 30 mg/kg, ip QD for 3 days administered 2 hrs post infection; assay type: functional; conditions: route intraperitoneal
Plasmodium berghei [25] = assay: Antimalarial activity against Plasmodium berghei NK-65 infected in Swiss Webster mouse assessed as cure from parasite infection at 1.1 mg/kg, ip QD for 3 days administered 2 hrs post infection measured after 28 days; assay type: functional, organism-based; parameters: dose 1.1 mg/kg
Plasmodium berghei [26] = assay: Antimalarial activity against Plasmodium berghei NK-65 infected in Swiss Webster mouse assessed as cure from parasite infection at 3.3 mg/kg, ip QD for 3 days administered 2 hrs post infection measured on day 28; assay type: functional, organism-based; parameters: dose 3.3 mg/kg
Plasmodium berghei [27] = assay: Antimalarial activity against Plasmodium berghei NK-65 infected in Swiss Webster mouse assessed as cure from parasite infection at 10 mg/kg, ip QD for 3 days administered 2 hrs post infection measured on day 28; assay type: functional, organism-based; parameters: dose 10 mg/kg
Plasmodium berghei [28] = assay: Antimalarial activity against Plasmodium berghei NK-65 infected in Swiss Webster mouse assessed as cure from parasite infection at 30 mg/kg, ip QD for 3 days administered 2 hrs post infection measured on day 28; assay type: functional; conditions: route intraperitoneal
Mus musculus = assay: Toxicity in Plasmodium berghei NK-65 infected Swiss Webster mouse at 30 mg/kg, ip QD for 3 days; assay type: organism-based; parameters: dose 30 mg/kg, route intraperitoneal; conditions: in vivo, 72 h

SMILES	IC50 (Plasmodium falciparum [1])	IC50 (Plasmodium falciparum [2])	IC50 (Plasmodium falciparum [3])	IC50 (Plasmodium falciparum [4])	Activity (Vero)	selectivity ratio [5]	selectivity ratio [6]	IC50 [8]	Activity (Plasmodium berghei [18])	Activity (Plasmodium berghei [19])	Activity (Plasmodium berghei [20])	Time (Plasmodium berghei [24])	Activity (Plasmodium berghei [28])	further results
OC(c1cc(C(F)(F)F)nc2c(C(F)(F)F)cccc12)C1CCCCN1 (stereo not given) [MEFLOQUINE]	0.0072 µM	0.0558 µM												
Clc1ccc2c(N3CCNCCN(c4ccnc5cc(Cl)ccc45)CCNCC3)ccnc2c1	0.0058 µM	0.0025 µM	0.0192 µM	0.0075 µM	Non-toxic	> 1330	> 521	1.1 µM	100%	100%	100%	>28 days	60%	IC50 (Plasmodium falciparum [7]): 0.0041 µM; Activity (Plasmodium berghei [9]): 65.2%; Activity (Plasmodium berghei [10]): 33.3%; Activity (Plasmodium berghei [11]): 22.7%; Activity (Plasmodium berghei [12]): 84.6%; Activity (Plasmodium berghei [13]): 44.1%; Activity (Plasmodium berghei [14]): 43.9%; Activity (Plasmodium berghei [15]): 96.3%; Activity (Plasmodium berghei [16]): 59.7%; Activity (Plasmodium berghei [17]): 40.9%; Time (Plasmodium berghei [21]): 23.8 days; Time (Plasmodium berghei [22]): 22.8 days; Time (Plasmodium berghei [23]): 26.2 days; Activity (Plasmodium berghei [25]): inactive; Activity (Plasmodium berghei [26]): inactive; Activity (Plasmodium berghei [27]): inactive
CCN(CC)CCCC(C)Nc1ccnc2cc(Cl)ccc12 (stereo not given) [CHLOROQUINE]					Non-toxic			9.5 µM	100%	100%	100%	>28 days	75%	Activity (Mus musculus): Non-toxic
C[C@@H]1CC[C@H]2[C@@H](C)C(=O)O[C@@H]3O[C@@]4(C)CC[C@@H]1[C@]32OO4 [ARTEMISININ]					Non-toxic									
Br.Clc1ccc2c(N3CCNCCNCCNCC3)ccnc2c1			0.211 µM	0.0648 µM	Non-toxic	> 154	> 48							
